Source: patent US20220356147A1, “COMPOUNDS AND METHODS FOR POTENTIATING COLISTIN ACTIVITY” (University of Notre Dame du Lac, priority 2019, published 2022)
Read-outs that look alike come from different tables or passages of the source.

How the values were obtained:
AB 4106 = test: Broth microdilution, standalone MIC of compound; type: cell-based, A. baumannii; conditions: standalone, no colistin, read-out: MIC of compound alone, AB 4106
Method: Broth microdilution method for the determination of minimum inhibitory concentrations: Bacteria were cultured for 4 to 6 hours in CAMHB and subcultured to 1.04×10^6 CFU/mL for AB 4106 and 1.96×10^6 CFU/mL for KP B9 in fresh CAMHB. To aliquots (1 mL) was added compound from stock solutions in DMSO, such that the compound concentration equaled the highest concentration tested. Samples were then dispensed (200 μL) into the first row of a 96-well microtiter plate in which all but the final row of subsequent wells were prefilled with 100 μL of the untreated bacterial subculture. The final row was filled with media to act as a sterility control and blank. Row one wells were mixed 6-7 times, then, 100 μL was withdrawn and transferred to row two. Row two wells were mixed 6-7 times followed by a 100 μL transfer from row two to row three. This procedure was used to serially dilute the rest of the rows of the microtiter plate, excluding the last prefilled row, which was used to measure growth in the absence of compound. Plates were then sealed with GLAD Press'n Seal and incubated under stationary conditions at 37 C. […] MIC values were determined as the minimum concentration required to achieve 90% growth inhibition compared to growth in untreated wells.

[1] = test system: A. baumannii 4106 (AB4106); test: Broth microdilution, colistin potentiation; type: cell-based
Method: (§1) Broth microdilution method for measurement of colistin potentiation: Bacteria were cultured for 4 to 6 hours in CAMHB and diluted to 1.04×10^6 CFU/mL for AB 4106 and 1.96×10^6 CFU/mL for KP B9 in fresh CAMHB. To aliquots (4 mL) was added compound from stock solutions in DMSO. One aliquot was not dosed to allow measurement of the colistin MIC in the absence of compound. A 1 mL aliquot of each sample was dosed with colistin, and from this 200 μL was dispensed into the first row of a 96-well microtiter plate in which all but the final row of subsequent wells was prefilled with 100 μL of the corresponding compound dosed bacterial suspension The final row was filled with media to act as a sterility control and blank. Row one wells were mixed 6-7 times, then, 100 μL was withdrawn and transferred to row two. Row two wells were mixed 6-7 times followed by a 100 μL transfer from row two to row three. This procedure was used to serially dilute the rest of the rows of the microtiter plate, excluding the last prefilled row, which was used to measure growth in the presence of compound alone. Plates were then sealed with GLAD
(§2) Press'n Seal and incubated under stationary conditions at 37° C. […] MIC values were determined as the minimum concentration required to achieve 90% growth inhibition compared to growth in untreated wells.

AB 17978 mcr-1 = test: Colistin potentiation, colistin-resistant isolate panel; type: cell-based, A. baumannii; conditions: compound at 5 μM
AB 4119 = test: as above; type: cell-based, A. baumannii; conditions: compound at 5 μM
AB 4112 = test: as above; type: cell-based, A. baumannii; conditions: compound at 5 μM
AB 3942 = test: as above; type: cell-based, A. baumannii; conditions: compound at 5 μM
4T1 cells = test: Cell line toxicity (MTT); type: cell-based
Method: Cell line Toxicity: 4T1 cells (ATCC Manassas, Va.) were plated at a density of 1×10^4 cells/well in 96-well plates in Roswell Park Memorial Institute Media 1640 (RPMI)
(Gibco, Gaithersburg, MD) supplemented with 10% Fetal Bovine Serum (Gibco), 2 mM GlutaMAX (Gibco) and 50 μM 2-mercaptoethanol (Sigma Aldrich, St. Louis, Mo.) and incubated at 37 C under a 5% CO2 atmosphere in the dark for 18 h. Cell cultures were treated with serial dilutions of compounds in the presence or absence of 1 μg/mL colistin (3 replicates per condition) and incubated for an additional 18 hours. The following control conditions were used: media only (blank), 1% Triton X100 (0% cell viability), 0.5% DMSO (100% cell viability). Each condition was then treated with 10% volume of a 5 mg/mL solution of 3-(4,5-dimethylthiazol-2-yl)-2,5-diphenyltetrazolium bromide (MTT) (Sigma Aldrich) in sterile filtered 1X phosphate buffered saline (PBS) and incubated for 2 h. at 37 C in 5% CO2, after which the media was aspirated and the resulting formazan crystals were resuspended in 100 μL acidified (4 mM HCl) isopropanol. The 96-well plate was then read at 540 nm on a FLUOstar Optima (BMG Labtech Cary, NC) microplate reader. Cell viability was calculated as a percentage using the two previously mentioned controls.

AB 3941 = test: Colistin potentiation, colistin-resistant isolate panel; type: cell-based, A. baumannii; conditions: compound at 5 μM
AB4106 and KPB9 = test: Initial screen for colistin resistance suppression, statements in words for both strains; type: cell-based, A. baumannii and K. pneumoniae; conditions: compound at 5 μM
Method: as §1, §2

K. pneumoniae B9 (KPB9) = test: Broth microdilution, colistin potentiation; type: cell-based; conditions: for ability to break colistin resistance, KPB9: compound at 500 nM
Method: as §1, §2

[2] = compound at 5 μM, colistin alone 2048 μg/mL

Row | SMILES | Colistin MIC fold reduction, AB 4106 ([1]; compound at 1 μM) | Colistin MIC fold reduction, AB 4106 ([1]; compound at 3 μM) | Colistin MIC fold reduction, AB 4106 [1, 2] | MIC (AB 4106; Acinetobacter baumannii, 16 h) | Colistin potentiation activity in words, compared to IMD-0354 (AB4106 and KPB9) | no measurable toxicity up to (4T1 cells; mouse, 18 h) | Colistin MIC fold reduction, AB 17978 mcr-1 (AB 17978 mcr-1) | Colistin MIC fold reduction, AB 4119 (AB 4119) | Colistin MIC fold reduction, AB 4112 (AB 4112) | Colistin MIC fold reduction, AB 3942 (AB 3942) | Colistin MIC fold reduction, AB 3941 (AB 3941) | ability to break colistin resistance, KPB9 (K. pneumoniae B9 (KPB9)) | other results
1 | O=C(Nc1cc(C(F)(F)F)cc(C(F)(F)F)c1Cl)c1cc(Cl)ccc1O [Compound 25] | 512 fold | 1024 fold | 2048 fold |  |  |  |  |  |  |  |  |  | MIC (AB 4106): 50 µM; Colistin MIC against AB 4106 ([1]; in presence of compound at 1 μM): 4 µg/mL; Colistin MIC against AB 4106 ([1]; in presence of compound at 3 μM): 2 µg/mL; Colistin MIC against AB 4106 ([1]; in presence of compound at 5 μM): 1 µg/mL; Colistin MIC against AB 17978 mcr-1 (AB 17978 mcr-1): 0.5 µg/mL; Colistin MIC against AB 4119 (AB 4119): 1 µg/mL; Colistin MIC against AB 4112 (AB 4112): 1 µg/mL; Colistin MIC against AB 3942 (AB 3942): 1 µg/mL; toxicity compared to IMD-0354 (4T1 cells; 4T1 cells, MTT): ca. two-fold more toxic than IMD-0354; CT50 (cytotoxicity) (4T1 cells; 4T1 cells, MTT, 18 hours): 110 µM; Colistin MIC against AB 3941 (AB 3941): 1 µg/mL
2 | O=C(Nc1ccc(C(F)(F)F)cc1)c1cc(Cl)ccc1O [Compound 26] | 128 fold | 1024 fold | 2048 fold | > 200 µM | activity equivalent to IMD-0354 | > 200 µM |  |  |  |  |  |  | 
3 | O=C(Nc1ccc(C(F)(F)F)c(F)c1)c1cc(Cl)ccc1O [Compound 29, 5-chloro-N-(3-fluoro-4-(trifluoromethyl)phenyl)-2-hydroxybenzamide] | 512 fold | 1024 fold | 2048 fold | > 200 µM | activity equivalent to IMD-0354 |  | (512) fold | (512) fold | (2048) fold | (≥4096) fold | (1024) fold | retained the ability to break colistin resistance | colistin MIC relative to breakpoint levels, KPB9 (K. pneumoniae B9 (KPB9); compound at 250 nM, breakpoint 2 μg/mL): reduced the colistin MIC below breakpoint levels
4 | O=C(Nc1cc(Br)cc(Br)c1)c1cc(Cl)ccc1O [Compound 23] | 256 fold | 1024 fold | 1024 fold | > 200 µM |  | > 200 µM | (128) fold | (1024) fold | (1024) fold | (≥2048) fold | (512) fold | retained the ability to break colistin resistance | 
5 | O=C(Nc1cc(F)cc(F)c1)c1cc(Cl)ccc1O [Compound 21] | 64 fold | 512 fold | 1024 fold | > 200 µM |  |  |  |  |  |  |  |  | CT50 (cytotoxicity) (4T1 cells; mouse, 18 h): 210 µM; toxicity compared to IMD-0354 (4T1 cells; mouse, 18 h): comparable toxicity to IMD-0354
6 | O=C(Nc1cc(Cl)cc(Cl)c1)c1cc(I)ccc1O [Compound 51] | 512 fold | 2048 fold | 2048 fold | > 200 µM |  |  | (512) fold | (2048) fold | (2048) fold | (≥4096) fold | (1024) fold | retained the ability to break colistin resistance | 
